Reference: ChEMBL document CHEMBL1201862, “PubChem BioAssay data set” (2004)
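A five-concentration, 48-hour dose response in 96-well plates underlies each endpoint, interpolated linearly between surrounding concentrations. GI50 is the concentration that inhibits growth by half.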 The source made the active and inactive calls. Rule as the data show it: active = GI50 up to about 1.1 µM and inactive = higher.

Experiments:
Test in all cases: NCI tumour cell line growth inhibition, 48 h
CAKI-1 = tested on: CAKI-1
COLO 205 = tested on: COLO 205
HOP-92 = tested on: HOP-92
HT-29 = tested on: HT-29
Hs-578T = tested on: Hs-578T
LOX IMVI = tested on: LOX IMVI
MDA-MB-435 = tested on: MDA-MB-435
NCI-H23 = tested on: NCI-H23
NCI-H460 = tested on: NCI-H460
OVCAR-4 = tested on: OVCAR-4
OVCAR-5 = tested on: OVCAR-5
OVCAR-8 = tested on: OVCAR-8
RPMI-8226 = tested on: RPMI-8226
SF-268 = tested on: SF-268
SK-MEL-28 = tested on: SK-MEL-28
SK-MEL-2 = tested on: SK-MEL-2
SNB-19 = tested on: SNB-19
T47D = tested on: T47D
UO-31 = tested on: UO-31
OVCAR-3 = tested on: OVCAR-3

| Compound | GI50 (CAKI-1) | GI50 (COLO 205) | GI50 (HOP-92) | GI50 (HT-29) | GI50 (Hs-578T) | GI50 (LOX IMVI) | GI50 (MDA-MB-435) | GI50 (NCI-H23) | GI50 (NCI-H460) | GI50 (OVCAR-4) | GI50 (OVCAR-5) | GI50 (OVCAR-8) | GI50 (RPMI-8226) | GI50 (SF-268) | GI50 (SK-MEL-28) | GI50 (SK-MEL-2) | GI50 (SNB-19) | GI50 (T47D) | GI50 (UO-31) | GI50 (OVCAR-3) |
| --- | --- | --- | --- | --- | --- | --- | --- | --- | --- | --- | --- | --- | --- | --- | --- | --- | --- | --- | --- | --- |
| COc1cccc(-c2cc(O)c3cc(N4CCN(C)CC4)ccc3n2)c1 | 2.66 µM (inactive) | 1.67 µM (inactive) | 1.06 µM (active) | 2.24 µM (inactive) | 0.774 µM (active) | 1.73 µM (inactive) | 0.225 µM (active) | 2.54 µM (inactive) | 2.99 µM (inactive) | 5.28 µM (inactive) | 5.14 µM (inactive) | 2.01 µM (inactive) | 3.35 µM (inactive) | 1.91 µM (inactive) | 1.47 µM (inactive) | 1.19 µM (inactive) | 2.77 µM (inactive) | > 10 µM (inactive) | 6.9 µM (inactive) | – |
| C/C=C(/C)C(=O)O[C@H]1[C@H]2[C@@H]([C@@H](OC(C)=O)[C@H](C)C(=O)[C@@]34C[C@@H](C)C(=O)[C@]3(/C=C(\C)[C@H]1OC(C)=O)O4)C2(C)C | 4.42 µM (inactive) | 2.6 µM (inactive) | 3.08 µM (inactive) | – | 5.64 µM (inactive) | 3.09 µM (inactive) | 2.99 µM (inactive) | 6.46 µM (inactive) | 1.31 µM (inactive) | 4.9 µM (inactive) | 3.94 µM (inactive) | 3.48 µM (inactive) | 3.35 µM (inactive) | 5.98 µM (inactive) | – | 4.27 µM (inactive) | 4.32 µM (inactive) | 2.31 µM (inactive) | 3.85 µM (inactive) | 3.95 µM (inactive) |
| NCCCN(CCCCN(CCCN)Cc1ccc2ccccc2c1)Cc1ccc2ccccc2c1 | 1.65 µM (inactive) | 2.55 µM (inactive) | 2.83 µM (inactive) | 1.7 µM (inactive) | 1.63 µM (inactive) | 2.1 µM (inactive) | 2.2 µM (inactive) | 1.85 µM (inactive) | 1.55 µM (inactive) | 1.99 µM (inactive) | 1.84 µM (inactive) | 1.82 µM (inactive) | 2.74 µM (inactive) | 1.29 µM (inactive) | 1.92 µM (inactive) | – | 1.53 µM (inactive) | 2.42 µM (inactive) | 2.32 µM (inactive) | – |
| O=C1NN=C2C=C(c3ccc(Cl)cc3)CC(c3cccc(Br)c3)C12 (stereo not given) | 23.4 µM (inactive) | > 100 µM (inactive) | 2.74 µM (inactive) | > 100 µM (inactive) | 19.1 µM (inactive) | 46.9 µM (inactive) | 77.1 µM (inactive) | 87.3 µM (inactive) | 40 µM (inactive) | > 100 µM (inactive) | > 100 µM (inactive) | > 100 µM (inactive) | 26.1 µM (inactive) | 68.5 µM (inactive) | – | 84.5 µM (inactive) | 21.2 µM (inactive) | 22.1 µM (inactive) | 42.8 µM (inactive) | 42.1 µM (inactive) |
| CC1=NN(c2cccc(Cl)c2)C2(SCC(=O)N2c2nc3ccccc3s2)C1=CC=Cc1ccccc1 (stereo not given) | 31.1 µM (inactive) | – | 17.7 µM (inactive) | 30.1 µM (inactive) | 27.7 µM (inactive) | 35.3 µM (inactive) | 31 µM (inactive) | 27 µM (inactive) | 30.5 µM (inactive) | 37.8 µM (inactive) | 51.6 µM (inactive) | 35.6 µM (inactive) | 23 µM (inactive) | 31.6 µM (inactive) | 34.4 µM (inactive) | 21.7 µM (inactive) | – | 34.4 µM (inactive) | 23.6 µM (inactive) | 39.6 µM (inactive) |
| Cc1ccc(-c2nc3cc(F)c(N4CCN(C)CC4)cc3[nH]2)cc1 | 32.1 µM (inactive) | 15.9 µM (inactive) | 66.5 µM (inactive) | – | 10.7 µM (inactive) | 27.9 µM (inactive) | 22.4 µM (inactive) | 22.2 µM (inactive) | 16.9 µM (inactive) | 17.1 µM (inactive) | 21.9 µM (inactive) | – | 33.6 µM (inactive) | 15.3 µM (inactive) | 26.2 µM (inactive) | 17.1 µM (inactive) | 22 µM (inactive) | 23 µM (inactive) | 13.9 µM (inactive) | – |
| Cc1cc2c(cc1-c1cc3c(cc1C)C(C(C)C)=C(O)C(=O)/C3=C\Nc1nc(-c3ccccc3)cs1)/C(=C/Nc1nc(-c3ccccc3)cs1)C(=O)C(O)=C2C(C)C | 35.7 µM (inactive) | 31.6 µM (inactive) | 18.8 µM (inactive) | 22.2 µM (inactive) | 37.3 µM (inactive) | – | 16.9 µM (inactive) | 15.5 µM (inactive) | 18.2 µM (inactive) | 30.8 µM (inactive) | > 10 µM (inactive) | 25.6 µM (inactive) | 33.9 µM (inactive) | 24.6 µM (inactive) | 16.8 µM (inactive) | 21 µM (inactive) | 17.1 µM (inactive) | 31.9 µM (inactive) | > 10 µM (inactive) | 15.3 µM (inactive) |
| CCCCCCCC(CC(=O)NC(CO)C(=O)NC(CO)CC(C)C)OC(=O)CC(CCCCCCC)OC(=O)CC(CCCCCCC)OC1OC(C)C(O)C(OC2OC(C)C(OC(C)=O)C(O)C2O)C1O (stereo not given) | 15.2 µM (inactive) | 2.52 µM (inactive) | 8.91 µM (inactive) | 3.41 µM (inactive) | 4.22 µM (inactive) | – | 6.53 µM (inactive) | 9.53 µM (inactive) | 3.97 µM (inactive) | 5.01 µM (inactive) | 10.1 µM (inactive) | 9.27 µM (inactive) | – | 8.28 µM (inactive) | 6.64 µM (inactive) | – | 5.27 µM (inactive) | 9.14 µM (inactive) | 15.4 µM (inactive) | 11.8 µM (inactive) |
| COc1cccc(C2c3cc4c(cc3OC(NNS(=O)(=O)c3ccc(C)cc3)C2C)OCO4)c1O (stereo not given) | 24.2 µM (inactive) | 17.8 µM (inactive) | 33.8 µM (inactive) | 17.9 µM (inactive) | 12.8 µM (inactive) | 26.1 µM (inactive) | 23.4 µM (inactive) | 29.2 µM (inactive) | 21.8 µM (inactive) | – | 52.4 µM (inactive) | 1.69 µM (inactive) | 6.31 µM (inactive) | 41.9 µM (inactive) | 25.5 µM (inactive) | 17.4 µM (inactive) | 28.3 µM (inactive) | 18.2 µM (inactive) | 18.5 µM (inactive) | 18.9 µM (inactive) |
| CCCCCC(C(O)C#N)C(O)(C(F)(F)F)C(F)(F)F (stereo not given) | > 10 µM (inactive) | > 10 µM (inactive) | > 10 µM (inactive) | > 10 µM (inactive) | > 10 µM (inactive) | > 10 µM (inactive) | > 10 µM (inactive) | > 10 µM (inactive) | – | > 10 µM (inactive) | > 10 µM (inactive) | > 10 µM (inactive) | > 10 µM (inactive) | > 10 µM (inactive) | > 10 µM (inactive) | – | > 10 µM (inactive) | > 10 µM (inactive) | – | > 10 µM (inactive) |
| CN1CCN(c2ccc3nc(C4=C(O)C(=O)[C@@H]5C(=C4O)N=C(CO)N5C)[nH]c3n2)CC1 | > 100 µM (inactive) | 80.5 µM (inactive) | 55 µM (inactive) | > 100 µM (inactive) | > 100 µM (inactive) | 73.1 µM (inactive) | 93.8 µM (inactive) | > 100 µM (inactive) | > 100 µM (inactive) | 75.2 µM (inactive) | > 100 µM (inactive) | 61.1 µM (inactive) | > 100 µM (inactive) | 74.3 µM (inactive) | > 100 µM (inactive) | – | 57.5 µM (inactive) | 17.7 µM (inactive) | > 100 µM (inactive) | 91 µM (inactive) |
